# Several values for one entry are separate records, joined by “and”; a condition that tells them apart may be missing. Equal values may be shown once. Read-outs that look alike come from different tables or passages of the source.
# Experiments:
# [1] = tested on: M. bovis BCG strains; experiment: organism not typed; assay type: cell-based, Mycobacterium bovis BCG
# [2] = assay type: in vivo, female rats; set-up: unit not given here; details: for Plasma concentration, individual animals: female rats 1-6, single oral 100 mg/kg, 100 mg/kg; for Plasma concentration, Average: female rats, average of 6 animals
# [3] = assay type: cell-based
# [4] = TA100, 4.88 μg/plate, absence of S9 mix
# [5] = TA100, 4.88 μg/plate, presence of S9 mix
# [6] = TA100, 78.1 μg/plate, absence of S9 mix
# [7] = TA100, 78.1 μg/plate, presence of S9 mix
# [8] = TA100, 313 μg/plate, absence of S9 mix
# [9] = TA100, 313 μg/plate, presence of S9 mix
# [10] = TA1535, 4.88 μg/plate, absence of S9 mix
# [11] = TA1535, 4.88 μg/plate, presence of S9 mix
# [12] = TA1535, 78.1 μg/plate, absence of S9 mix
# [13] = TA1535, 78.1 μg/plate, presence of S9 mix
# [14] = TA1535, 313 μg/plate, absence of S9 mix
# [15] = TA1535, 313 μg/plate, presence of S9 mix
# [16] = TA1537, 4.88 μg/plate, absence of S9 mix
# [17] = TA1537, 4.88 μg/plate, presence of S9 mix
# [18] = TA1537, 78.1 μg/plate, absence of S9 mix
# [19] = TA1537, 78.1 μg/plate, presence of S9 mix
# [20] = TA1537, 313 μg/plate, absence of S9 mix
# [21] = TA1537, 313 μg/plate, presence of S9 mix
# [22] = WP2uvrA (pKM101), 4.88 μg/plate, absence of S9 mix
# [23] = WP2uvrA (pKM101), 4.88 μg/plate, presence of S9 mix
# [24] = WP2uvrA (pKM101), 78.1 μg/plate, absence of S9 mix
# [25] = WP2uvrA (pKM101), 78.1 μg/plate, presence of S9 mix
# [26] = WP2uvrA (pKM101), 313 μg/plate, absence of S9 mix
compound,measurement,setting,value
"NNC(=O)c1ccncc1 [INH, isoniazid, reference compound]",MIC,[1],0.2 µg/mL
"CCCCOc1ccc2cc(CN3C(=O)CC[C@H]3C(=O)OC)c3cc(OC)c(OC)cc3c2c1 [PP2S, Methyl (S)-1-((3-butoxy-6,7-dimethoxyphenanthren-9-yl)methyl)-5-oxopyrrolidine-2-carboxylate]","Plasma concentration, individual animals",[2]; 2 h,237.59
same,"Plasma concentration, individual animals",[2]; 4 h,316.47
same,"Plasma concentration, individual animals",[2]; 6 h,323.47
same,"Plasma concentration, individual animals",[2]; 8 h,253.32
same,"Plasma concentration, individual animals",[2]; 10 h,217.50
same,"Plasma concentration, individual animals",[2]; 12 h,210.07
same,"Plasma concentration, individual animals",[2]; 14 h,174.31
same,"Plasma concentration, individual animals",[2]; 16 h,211.29
same,"Plasma concentration, individual animals",[2]; 18 h,122.20
same,"Plasma concentration, individual animals",[2]; 20 h,116.07
same,"Plasma concentration, individual animals",[2]; 22 h,87.81
same,"Plasma concentration, individual animals",[2]; 24 h,63.19
same,"Plasma concentration, Average","[2]; single oral 100 mg/kg, 2 h",320.00
same,"Plasma concentration, Average","[2]; single oral 100 mg/kg, 4 h",432.00
same,"Plasma concentration, Average","[2]; single oral 100 mg/kg, 6 h",276.00
same,"Plasma concentration, Average","[2]; single oral 100 mg/kg, 8 h",154.00
same,"Plasma concentration, Average","[2]; single oral 100 mg/kg, 10 h",132.00
same,"Plasma concentration, Average","[2]; single oral 100 mg/kg, 12 h",110.00
same,"Plasma concentration, Average","[2]; single oral 100 mg/kg, 14 h",97.00
same,"Plasma concentration, Average","[2]; single oral 100 mg/kg, 16 h",81.00
same,"Plasma concentration, Average","[2]; single oral 100 mg/kg, 18 h",78.00
same,"Plasma concentration, Average","[2]; single oral 100 mg/kg, 20 h",67.00
same,"Plasma concentration, Average","[2]; single oral 100 mg/kg, 22 h",52.00
same,"Plasma concentration, Average","[2]; single oral 100 mg/kg, 24 h",35.00
same,"Plasma concentration, Average","[2]; single oral 150 mg/kg, 18 h",85.00
same,"Plasma concentration, Average","[2]; single oral 150 mg/kg, 20 h",76.00
same,"Plasma concentration, Average","[2]; single oral 150 mg/kg, 22 h",63.00
same,"Plasma concentration, Average","[2]; single oral 150 mg/kg, 24 h",42.00
same,Individual revertant colony counts,[3]; [4],77 colonies per plate and 71 colonies per plate
same,Mean revertant colonies,[3]; [4],74 colonies per plate
same,Individual revertant colony counts,[3]; [5],116 colonies per plate and 111 colonies per plate
same,Mean revertant colonies,[3]; [5],114 colonies per plate
same,Individual revertant colony counts,[3]; [6],78 colonies per plate and 85 colonies per plate
same,Mean revertant colonies,[3]; [6],82 colonies per plate
same,Individual revertant colony counts,[3]; [7],111 colonies per plate and 107 colonies per plate
same,Mean revertant colonies,[3]; [7],109 colonies per plate
same,Individual revertant colony counts,[3]; [8],98 colonies per plate and 95 colonies per plate
same,Mean revertant colonies,[3]; [8],97 colonies per plate
same,Individual revertant colony counts,[3]; [9],111 colonies per plate and 107 colonies per plate
same,Mean revertant colonies,[3]; [9],109 colonies per plate
same,Individual revertant colony counts,[3]; [10],18 colonies per plate and 19 colonies per plate
same,Mean revertant colonies,[3]; [10],19 colonies per plate
same,Individual revertant colony counts,[3]; [11],10 colonies per plate and 12 colonies per plate
same,Mean revertant colonies,[3]; [11],11 colonies per plate
same,Individual revertant colony counts,[3]; [12],18 colonies per plate and 19 colonies per plate
same,Mean revertant colonies,[3]; [12],19 colonies per plate
same,Individual revertant colony counts,[3]; [13],17 colonies per plate and 15 colonies per plate
same,Mean revertant colonies,[3]; [13],16 colonies per plate
same,Individual revertant colony counts,[3]; [14],15 colonies per plate and 17 colonies per plate
same,Mean revertant colonies,[3]; [14],16 colonies per plate
same,Individual revertant colony counts,[3]; [15],16 colonies per plate and 15 colonies per plate
same,Mean revertant colonies,[3]; [15],16 colonies per plate
same,Individual revertant colony counts,[3]; [16],10 colonies per plate and 11 colonies per plate
same,Mean revertant colonies,[3]; [16],11 colonies per plate
same,Individual revertant colony counts,[3]; [17],16 colonies per plate and 14 colonies per plate
same,Mean revertant colonies,[3]; [17],15 colonies per plate
same,Individual revertant colony counts,[3]; [18],11 colonies per plate and 10 colonies per plate
same,Mean revertant colonies,[3]; [18],11 colonies per plate
same,Individual revertant colony counts,[3]; [19],18 colonies per plate and 17 colonies per plate
same,Mean revertant colonies,[3]; [19],18 colonies per plate
same,Individual revertant colony counts,[3]; [20],9 colonies per plate and 8 colonies per plate
same,Mean revertant colonies,[3]; [20],9 colonies per plate
same,Individual revertant colony counts,[3]; [21],18 colonies per plate and 19 colonies per plate
same,Mean revertant colonies,[3]; [21],19 colonies per plate
same,Individual revertant colony counts,[3]; [22],92 colonies per plate and 86 colonies per plate
same,Mean revertant colonies,[3]; [22],89 colonies per plate
same,Individual revertant colony counts,[3]; [23],149 colonies per plate and 156 colonies per plate
same,Mean revertant colonies,[3]; [23],153 colonies per plate
same,Individual revertant colony counts,[3]; [24],87 colonies per plate and 94 colonies per plate
same,Mean revertant colonies,[3]; [24],91 colonies per plate
same,Individual revertant colony counts,[3]; [25],156 colonies per plate and 167 colonies per plate
same,Mean revertant colonies,[3]; [25],162 colonies per plate
same,Individual revertant colony counts,[3]; [26],91 colonies per plate and 93 colonies per plate
same,Mean revertant colonies,[3]; [26],92 colonies per plate
same,Individual revertant colony counts,"[3]; WP2uvrA (pKM101), 313 μg/plate, presence of S9 mix",162 colonies per plate and 165 colonies per plate
same,genotoxicity,[3]; bacterial reverse mutation test,did not show genotoxicity

# — paper PMC9154192 (PLoS Biology, 2022)
